This is an account of results in patent US8716303B2, “N-(hetero)aryl-pyrrolidine derivatives of pyrazol-4-yl-pyrrolo[2,3-d]pyrimidines and pyrrol-3-yl-pyrrolo[2,3-d]pyrimidines as janus kinase inhibitors” (Incyte Corporation, priority 2009, dated 2014).

Experiment [1] deals with T1, human JAK1 (a.a. 837-1142) (Homo sapiens, UniProt P23458).
T1 construct: human JAK1 (a.a. 837-1142); His tag (N); made in house; host or cells: insect cells (baculovirus)
Briefly: In vitro JAK kinase assay (HTRF, phosphorylation of a biotinylated peptide), JAK1. The class given is biochemical. In short, it runs like this: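 IC50s come from HTRF detection (Eu-Py20, SA-APC, 40 min binding) after 1 h RT reactions with 500 nM biotinylated peptide in Tris pH 7.8 buffer. ATP either 1 mM or Km-level, 90 μM for JAK1 and 30 μM for JAK2; enzymes are baculovirus-expressed His-tagged catalytic domains (JAK1 837-1142, JAK2 828-1132).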

The next experiment has as its target T2, Jak2 (a.a. 828-1132) (Homo sapiens, UniProt O60674).
T2 construct: Jak2 (a.a. 828-1132); His tag (N); made in house; host or cells: insect cells (baculovirus)
The experiment is described as follows: In vitro JAK kinase assay (HTRF, phosphorylation of a biotinylated peptide), JAK2, reported as JAK2/JAK1 ratio. The format is biochemical.

Setting [2] is: Assay Conditions Km (ATP 90 μM for Jak1).
Setting [3] is: Assay Conditions Km (ATP 90 μM for Jak1, 30 μM for Jak2).

The structures appear in SMILES notation. Counter-ions that a name gives are not always drawn.

T1 sequence (P23458 849-1154): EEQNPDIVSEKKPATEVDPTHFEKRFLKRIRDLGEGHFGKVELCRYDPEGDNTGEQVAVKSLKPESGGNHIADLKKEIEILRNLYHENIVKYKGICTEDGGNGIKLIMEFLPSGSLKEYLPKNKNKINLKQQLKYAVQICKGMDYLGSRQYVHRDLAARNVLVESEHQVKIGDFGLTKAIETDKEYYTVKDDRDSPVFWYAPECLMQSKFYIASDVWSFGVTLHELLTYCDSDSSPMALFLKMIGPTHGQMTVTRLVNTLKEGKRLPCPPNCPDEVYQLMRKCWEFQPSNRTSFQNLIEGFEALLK
T2 sequence (O60674 828-1132): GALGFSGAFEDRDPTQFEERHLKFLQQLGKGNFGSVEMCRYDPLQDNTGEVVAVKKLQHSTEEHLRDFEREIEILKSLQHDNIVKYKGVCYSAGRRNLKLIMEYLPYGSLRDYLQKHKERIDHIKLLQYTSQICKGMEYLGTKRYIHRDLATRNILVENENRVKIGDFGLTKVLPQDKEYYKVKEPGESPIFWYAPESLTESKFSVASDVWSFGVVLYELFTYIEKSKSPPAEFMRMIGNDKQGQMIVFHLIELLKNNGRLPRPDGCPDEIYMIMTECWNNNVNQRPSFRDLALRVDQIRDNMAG

Consider `N#CC[C@@H]([C@H]1CCN(c2ccc(F)c(F)n2)C1)n1cc(-c2ncnc3[nH]ccc23)cn1.O=C(O)C(F)(F)F` [Example 89, (3S)-3-[(3S)-1-(5,6-difluoropyridin-2-yl)pyrrolidin-3-yl]-3-[4-(7H-pyrrolo[2,3-d]pyrimidin-4-yl)-1H-pyrazol-1-yl]propanenitrile trifluoroacetate], for which the IC50 in experiment [1] (Assay Conditions 1 mM ATP) was below 50 nM. In addition, the “JAK2/JAK1 IC50 ratio” value on Jak2 (a.a. 828-1132) (Assay Conditions 1 mM ATP) stood at 3.1.
In the same order, the values of `COCc1cnc(N2CC[C@H]([C@H](CC#N)n3cc(-c4ncnc5[nH]ccc45)cn3)C2)c(C#N)n1` [Example 141, 3-((3S)-3-{(1S)-2-cyano-1-[4-(7H-pyrrolo[2,3-d]pyrimidin-4-yl)-1H-pyrazol-1-yl]ethyl}pyrrolidin-1-yl)-6-(methoxymethyl)pyrazine-2-carbonitrile trifluoroacetate] are below 50 nM and 16.2.
In experiment [1] (Assay Conditions 1 mM ATP), `N#CCC(C1CCN(c2nc3cc(F)cc(F)c3o2)C1)n1cc(-c2ncnc3[nH]ccc23)cn1` (single isomer, unassigned) [Example 22, 3-[1-(5,7-difluoro-1,3-benzoxazol-2-yl)pyrrolidin-3-yl]-3-[4-(7H-pyrrolo[2,3-d]pyrimidin-4-yl)-1H-pyrazol-1-yl]propanenitrile] registered an IC50 below 50 nM. Besides, on Jak2 (a.a. 828-1132) (Assay Conditions 1 mM ATP), the “JAK2/JAK1 IC50 ratio” value was above 7.
Compound `N#CCC(C1CCN(c2ccc3c(n2)S(=O)(=O)CC3)C1)n1cc(-c2ncnc3[nH]ccc23)cn1` (single isomer, unassigned) [Example 30, 3-[1-(1,1-dioxido-2,3-dihydrothieno[2,3-b]pyridin-6-yl)pyrrolidin-3-yl]-3-[4-(7H-pyrrolo[2,3-d]pyrimidin-4-yl)-1H-pyrazol-1-yl]propanenitrile] yielded a half-inhibitory concentration (IC50) in experiment [1] (Assay Conditions 1 mM ATP) below 50 nM. On Jak2 (a.a. 828-1132) (Assay Conditions 1 mM ATP), the “JAK2/JAK1 IC50 ratio” value was determined as 14.5.
In the same order, the values of `N#CCC(C1CCN(c2nc3cccc(OC(F)F)c3o2)C1)n1cc(-c2ncnc3[nH]ccc23)cn1` (single isomer, unassigned) [Example 164, 3-(4-(7H-pyrrolo[2,3-d]pyrimidin-4-yl)-1H-pyrazol-1-yl)-3-(1-(7-(difluoromethoxy)benzo[d]oxazol-2-yl)pyrrolidin-3-yl)propanenitrile] are below 50 nM and 10.9.
`N#CC[C@@H]([C@H]1CCN(c2c(C#N)cccc2C#N)C1)n1cc(-c2ncnc3[nH]ccc23)cn1` [Example 59, 2-((3S)-3-{(1S)-2-cyano-1-[4-(7H-pyrrolo[2,3-d]pyrimidin-4-yl)-1H-pyrazol-1-yl]ethyl}pyrrolidin-1-yl)isophthalonitrile trifluoroacetate salt] came in with an IC50 in experiment [1] (Assay Conditions 1 mM ATP) below 50 nM. At Jak2 (a.a. 828-1132) (Assay Conditions 1 mM ATP), the “JAK2/JAK1 IC50 ratio” value was 6.5.
The compound `N#CCC(C1CCN(c2nc3ccccc3o2)C1)n1cc(-c2ncnc3[nH]ccc23)cn1` (single isomer, unassigned) [9, Step 3a] registered an IC50 in experiment [1] (setting [2]) below 50 nM. For the same compound, the “JAK2/JAK1 IC50 ratio” value on Jak2 (a.a. 828-1132) (setting [3]) came out at 1.9.
For `N#CC[C@@H]([C@H]1CCN(c2nc(Cl)c(C#N)cc2F)C1)n1cc(-c2ncnc3[nH]ccc23)cn1` [Example 63, 6-((S)-3-((S)-1-(4-(7H-pyrrolo[2,3-d]pyrimidin-4-yl)-1H-pyrazol-1-yl)-2-cyanoethyl)pyrrolidin-1-yl)-2-chloro-5-fluoronicotinonitrile trifluoroacetate salt], the IC50 in experiment [1] (Assay Conditions 1 mM ATP) is below 50 nM. Besides, at Jak2 (a.a. 828-1132) (Assay Conditions 1 mM ATP), the “JAK2/JAK1 IC50 ratio” value stood at 7.3.
In the same order, the values of `N#CC[C@@H]([C@H]1CCN(c2cccc(C(F)F)c2C#N)C1)n1cc(-c2ncnc3[nH]ccc23)cn1` [Example 111, 2-((S)-3-((S)-1-(4-(7H-pyrrolo[2,3-d]pyrimidin-4-yl)-1H-pyrazol-1-yl)-2-cyanoethyl)pyrrolidin-1-yl)-6-(difluoromethyl)benzonitrile trifluoroacetate salt] are below 50 nM and 37.6.
In experiment [1] (Assay Conditions 1 mM ATP), `N#CCC(C1CCN(c2ncc3cc[nH]c3c2C#N)C1)n1cc(-c2ncnc3[nH]ccc23)cn1` (single isomer, unassigned) [Example 177, 6-(3-{2-cyano-1-[4-(7H-pyrrolo[2,3-d]pyrimidin-4-yl)-1H-pyrazol-1-yl]ethyl}pyrrolidin-1-yl)-1H-pyrrolo[3,2-c]pyridine-7-carbonitrile] showed an IC50 below 50 nM. In addition, the “JAK2/JAK1 IC50 ratio” value on Jak2 (a.a. 828-1132) (Assay Conditions 1 mM ATP) is given as above 5.4.
Consider `N#CC[C@@H]([C@H]1CCN(c2nccnc2C#N)C1)n1cc(-c2ncnc3[nH]ccc23)cn1` [Example 51, 3-((3S)-3-{(1S)-2-cyano-1-[4-(7H-pyrrolo[2,3-d]pyrimidin-4-yl)-1H-pyrazol-1-yl]ethyl}pyrrolidin-1-yl)pyrazine-2-carbonitrile trifluoroacetate], for which the IC50 in experiment [1] (Assay Conditions 1 mM ATP) was below 50 nM. Further, the “JAK2/JAK1 IC50 ratio” value on Jak2 (a.a. 828-1132) (Assay Conditions 1 mM ATP) worked out at 6.8.
The compound `N#CCC(C1CCN(c2nc3ccccc3nc2O)C1)n1cc(-c2ncnc3[nH]ccc23)cn1` (stereo not shown) [Example 43, 3-[1-(3-hydroxyquinoxalin-2-yl)pyrrolidin-3-yl]-3-[4-(7H-pyrrolo[2,3-d]pyrimidin-4-yl)-1H-pyrazol-1-yl]propanenitrile trifluoroacetate salt] had an IC50 in experiment [1] (setting [2]) below 50 nM. For the same compound, the “JAK2/JAK1 IC50 ratio” value on Jak2 (a.a. 828-1132) (setting [3]) is listed as 2.5.
Compound `Cc1cnc(N2CC[C@H]([C@H](CC#N)n3cc(-c4ncnc5[nH]ccc45)cn3)C2)c(C#N)n1` [Example 145, 3-((3S)-3-{(1S)-2-cyano-1-[4-(7H-pyrrolo[2,3-d]pyrimidin-4-yl)-1H-pyrazol-1-yl]ethyl}pyrrolidin-1-yl)-6-methylpyrazine-2-carbonitrile trifluoroacetate] registered an IC50 in experiment [1] (Assay Conditions 1 mM ATP) below 50 nM. Further, the “JAK2/JAK1 IC50 ratio” value on Jak2 (a.a. 828-1132) (Assay Conditions 1 mM ATP) was above 11.1.
For the compound `CC(F)c1ccnc(N2CC[C@H]([C@H](CC#N)n3cc(-c4ncnc5[nH]ccc45)cn3)C2)c1C#N` (stereo partly drawn) [Example 136, 2-((3S)-3-{(1S)-2-cyano-1-[4-(7H-pyrrolo[2,3-d]pyrimidin-4-yl)-1H-pyrazol-1-yl]ethyl}pyrrolidin-1-yl)-4-(1-fluoroethyl)nicotinonitrile trifluoroacetate], the IC50 in experiment [1] (Assay Conditions 1 mM ATP) is below 50 nM. The “JAK2/JAK1 IC50 ratio” value on Jak2 (a.a. 828-1132) (Assay Conditions 1 mM ATP) is given as above 5.
In turn, `Cc1cnc(N2CC[C@H]([C@H](CC#N)n3cc(-c4ncnc5[nH]ccc45)cn3)C2)c(C#N)c1` [Example 109, 2-((S)-3-((S)-1-(4-(7H-pyrrolo[2,3-d]pyrimidin-4-yl)-1H-pyrazol-1-yl)-2-cyanoethyl)pyrrolidin-1-yl)-5-methylnicotinonitrile trifluoroacetate salt] yielded an IC50 in experiment [1] (Assay Conditions 1 mM ATP) below 50 nM. Also, the “JAK2/JAK1 IC50 ratio” value on Jak2 (a.a. 828-1132) (Assay Conditions 1 mM ATP) stood at 5.0.
Regarding `N#CC[C@@H]([C@H]1CCN(c2ncsc2C#N)C1)n1cc(-c2ncnc3[nH]ccc23)cn1` [Example 82, 4-(3-{2-cyano-1-[4-(7H-pyrrolo[2,3-d]pyrimidin-4-yl)-1H-pyrazol-1-yl]ethyl}pyrrolidin-1-yl)-1,3-thiazole-5-carbonitrile], the IC50 in experiment [1] (Assay Conditions 1 mM ATP) is below 50 nM. The “JAK2/JAK1 IC50 ratio” value on Jak2 (a.a. 828-1132) (Assay Conditions 1 mM ATP) amounted to 6.7.
In the case of `CS(=O)(=O)c1nc(N2CC[C@H](C(CF)n3cc(-c4ncnc5[nH]ccc45)cn3)C2)c(F)cc1F` (stereo partly drawn) [Example 132, 4-[1-(1-{(3S)-1-[3,5-difluoro-6-(methylsulfonyl)pyridin-2-yl]pyrrolidin-3-yl}-2-fluoroethyl)-1H-pyrazol-4-yl]-7H-pyrrolo [2,3-d]pyrimidine trifluoroacetate], the IC50 in experiment [1] (Assay Conditions 1 mM ATP) is below 50 nM. In addition, the “JAK2/JAK1 IC50 ratio” value at Jak2 (a.a. 828-1132) (Assay Conditions 1 mM ATP) turned out to be 8.9.
In the same order, the values of `N#CCC(C1CCN(c2ncc3ccsc3c2C#N)C1)n1cc(-c2ncnc3[nH]ccc23)cn1` (single isomer, unassigned) [Example 175, 6-(3-{2-cyano-1-[4-(7H-pyrrolo[2,3-d]pyrimidin-4-yl)-1H-pyrazol-1-yl]ethyl}pyrrolidin-1-yl)thieno[3,2-c]pyridine-7-carbonitrile] are below 50 nM and 15.4.
For `N#CCC(n1cc(-c2ncnc3[nH]ccc23)cn1)C1(F)CCN(c2nc3cccnc3o2)C1` (single isomer, unassigned) [31, Step 4a, enantiomer 1], in that order: 50 to 100 nM and 5.6.
In experiment [1] (Assay Conditions 1 mM ATP), `FCC([C@H]1CCN(c2nc3c(cc2F)CCS3)C1)n1cc(-c2ncnc3[nH]ccc23)cn1` (stereo partly drawn) [Example 85, 4-(1-{2-fluoro-1-[(3S)-1-(5-fluoro-2,3-dihydrothieno[2,3-b]pyridin-6-yl)pyrrolidin-3-yl]ethyl}-1H-pyrazol-4-yl)-7H-pyrrolo[2,3-d]pyrimidine bis(trifluoroacetate)] showed an IC50 below 50 nM. Further, the “JAK2/JAK1 IC50 ratio” value on Jak2 (a.a. 828-1132) (Assay Conditions 1 mM ATP) worked out at 5.3.
`CSc1cccc(N2CCC(C(CC#N)n3cc(-c4ncnc5[nH]ccc45)cn3)C2)c1C#N` (racemic) [Example 40, ±2-(3-{2-cyano-1-[4-(7H-pyrrolo[2,3-d]pyrimidin-4-yl)-1H-pyrazol-1-yl]ethyl}pyrrolidin-1-yl)-6-(methylthio)benzonitrile] returned an IC50 in experiment [1] (Assay Conditions 1 mM ATP) below 50 nM. In addition, the “JAK2/JAK1 IC50 ratio” value at Jak2 (a.a. 828-1132) (Assay Conditions 1 mM ATP) was 7.1.
`N#CC[C@@H]([C@H]1CCN(c2nccc(C(F)(F)F)c2F)C1)n1cc(-c2ncnc3[nH]ccc23)cn1` [Example 66, (3S)-3-{(3S)-1-[3-fluoro-4-(trifluoromethyl)pyridin-2-yl]pyrrolidin-3-yl}-3-[4-(7H-pyrrolo[2,3-d]pyrimidin-4-yl)-1H-pyrazol-1-yl] propanenitrile trifluoroacetate salt]: the IC50 in experiment [1] (Assay Conditions 1 mM ATP) is below 50 nM. In addition, on Jak2 (a.a. 828-1132) (Assay Conditions 1 mM ATP), the “JAK2/JAK1 IC50 ratio” value was above 20.
For `N#Cc1cccnc1N1CC[C@H](C(CF)n2cc(-c3ncnc4[nH]ccc34)cn2)C1` (stereo partly drawn) [Example 118, 2-((3S)-3-{2-fluoro-1-[4-(7H-pyrrolo[2,3-d]pyrimidin-4-yl)-1H-pyrazol-1-yl]ethyl}pyrrolidin-1-yl)nicotinonitrile trifluoroacetate], in that order: below 50 nM and 2.8.
